Measured values taken from patent publication US6291657A (priority 1993, dated 2001).
“Also recorded” adds a separate entry of the source. Read-outs that look alike come from different tables or passages of the source.

Tests used:
[1] = tested on: glycolipid biosynthesis in HL-60 cells; experiment: Inhibition of glycolipid biosynthesis in HL-60 cells, [14C]-palmitic acid labelling, 1D-TLC; assay type: cell-based, human; details: for minimal effective concentration: Homo sapiens;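 on all read-outs here: cells cultured 24 h with or without test compound, total cellular lipids resolved by one-dimensional TLC and detected by autoradiography, inhibition shown as missing Glc-Cer and gangliosides versus untreated cells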
[2] = tested on: oligosaccharide biosynthesis in HL-60 cells; experiment: Glycopeptide analysis by Con A-SEPHAROSE chromatography, HL-60 cells; assay type: cell-based, human
[3] = tested on: N-linked oligosaccharide processing of gp120 in CHO cells (α-glucosidases I and II); experiment: Endo H sensitivity of gp120 expressed in CHO cells (N-linked oligosaccharide processing); assay type: cell-based, Chinese hamster
Procedure: The arrows indicate the molecular weight of the untreated gp120 (120 kDa) and post endo H digestion (60 kDa). An additional band of low molecular weight (approximately 60 kDa) was present in some lanes and is a non-specific protein precipitated by the solid phase matrix.
The culture of CHO cells expressing soluble recombinant gp120 (from Dr. P. Stevens, MRC AIDS Directed Programme Reagent Project) and the radiolabelling of these cells was carried out by conventional procedure as described by Karlsson et al., J. Biol. Chem. 268, 570-576 (1993). Briefly, CHO cells were harvested mechanically, washed three times with phosphate buffered saline, 0.1M pH 7.2 (PBS) and resuspended in methionine- and cysteine-free RPMI-1640 medium (ICN-Flow Laboratories, High Wycombe, Bucks, U.K.) supplemented with 1% dialysed FCS. Cells (10^7 /ml) were preincubated in the presence or absence of NB-DNJ or NB-DGJ for 1 hr prior to the addition of 100 μCi/ml Tran^35 S-label (ICN-Flow) for 4 hr. The supernatants were collected and concentrated tenfold using a 30 kDa cut-off membrane (Amicon, Danvers, Mass., U.S.A.).
Immunoprecipitations were performed by conventional procedure as described by Karlsson supra. Supernatants were incubated with the mAb ABT 1001 monoclonal antibody (American Biotechnologies Inc., Cambridge, Mass., U.S.A.) at 0.5 μg/100 μl of supernatant for 30 min. at room temperature followed by sheep anti-mouse IgG1-coated magnetic beads (Dynal Ltd., Wirral, Merseyside, U.K., 1.2×10^7 beads per sample) for 1 hr. at 4° C. The beads were washed three times with 2% TRITON® X-100 in PBS and three times with PBS. Gp120 was eluted in […] reducing SDS-PAGE sample buffer with heating (95° C., 5 min.). Each sample was divided into two equal aliquots and 25 μl of dH2 O added to give a final volume of 50 μl. To one half of each sample 2 μl of endoglycosidase H (endo H, 1 unit/ml, Boehringer Mannheim Ltd., Lewes, Sussex, U.K.) was added and the other half left untreated. […]

HL-60 cells = experiment: Cytotoxicity in the dose range tested; assay type: cell-based, human
[4] = tested on: glycolipid and phospholipid species in HL-60 cells; experiment: 2D-TLC analysis of total HL-60 lipids labelled with [14C]-palmitic acid; assay type: cell-based, human; details: 2D-TLC (FIG. 2)
Procedure: 2D-TLC separation was made of total HL-60 lipids labelled with [^14 C]-palmitic acid. Cells were treated with either 0.5 mM NB-DNJ or NB-DGJ or untreated (UT). Lipids were assigned as follows (untreated cells, lefthand panel, FIG. 2A): 1, gangliosides; 2, lysophospatidylcholine; 3, ceramide phosphorylcholine; 4, ceramide phosphorylethanolamine; 5, phospatidylcholine; 6, phosphatidylinositol; 7, phosphatidylethanolamine; 8, phosphatidylglycerol; 9, diglycosylceramide; 10, monoglycosylceramide; 11, cholesterol/fatty acids/neutral lipids; N and N* are unknowns; and 0 is the sample origin. Following NB-DNJ and NB-DGJ treatment (middle and righthand panels, FIGS. 2B and 2C, respectively) species 1 (gangliosides);9 (diglycosylceramide); 10 (monoglycosylceramide) and N* (unknown) were absent. The radiolabelled lipids were visualized by autoradiography.
HL-60 cells were cultured by conventional procedure as previously described by Platt et al., Eur. J. Biochem. 208, 187-193 (1992). HL-60 cells at 5×10^4 cells/ml were cultured in the presence or absence of imino sugars for 24 hr. For labelling, the two dimensional thin layer chromatography (2D-TLC) conventional method of Butters and Hughes was followed [In Vitro 17, 831-838 (1981)]. Briefly, [^14 C]-palmitic acid (56.8 mCi/mmol, ICN/Flow) was added as a sonicated preparation in foetal calf serum (FCS, Techgen, London, U.K., 0.5 μCi/ml) and the cells cultured for a further 3 days maintaining the imino sugars in the medium. The cells were harvested, washed three times with phosphate buffered saline (PBS), extracted in 1 ml chloroform:methanol (2:1 v/v) and separated by 1 dimensional TLC, loading equal counts (1D-TLC, chloroform:methanol:water (65:25:4)). For two dimensional separations the one dimensional separation was performed as described above, the plate dried overnight under vacuum and separated in the second dimension using a solvent of tetrahydrofuran: dimethoxymethane:methanol:water (10:6:4:1). Plates were air dried and exposed to Hyperfilm-MP high performance autoradiography film (Amersham).

[5] = tested on: cholera toxin binding sites on H9 cells; assay type: cell-based, human
[6] = molecular target: UDP-glucose:N-acylsphingosine glucosyltransferase; experiment: Inhibition of UDP-glucose:N-acylsphingosine glucosyltransferase; assay type: biochemical, rat brain, mouse macrophage (WEHI-3B); details: rat brain or mouse macrophage homogenates; read-out: IC50
WEHI-3B cell lysosomes = experiment: Transmission electron microscopy of lysosomes of CBE treated WEHI-3B cells; assay type: cell-based, murine; details: transmission electron microscopy (FIG. 6)
[7] = tested on: oligosaccharide biosynthesis in BW5147 cells; experiment: Glycopeptide analysis by Con A-SEPHAROSE chromatography, BW5147 cells; assay type: cell-based, murine

## CCCCN1C[C@H](O)[C@@H](O)[C@@H](O)[C@H]1CO [NB-DGJ, N-butyl deoxygalactonojirimycin]
[1]; HL-60, 500 μM, 1D-TLC
  lipid species whose biosynthesis was inhibited: inhibited the biosynthesis of Glc-Cer, gangliosides and an unknown lipid species
[1]; HL-60, 500 μM, 1D-TLC (FIG. 1)
  inhibition of glycolipid biosynthesis: specifically inhibited glycolipid biosynthesis
[1]; HL-60, 0.5 mM, 1D-TLC (FIG. 4), listed as N-butyl DGJ
  effect of N-alkyl chain length on inhibition of glycolipid biosynthesis (loss of detectable Glc-Cer): completely prevented glycolipid biosynthesis; also recorded: completely inhibited glycolipid biosynthesis
[1]; HL-60, relatively low concentration, read-out: concentration inhibitory of glycolipid biosynthesis
  minimal effective concentration: ~50 µM
[1]; HL-60, 1D-TLC (FIG. 3), partial inhibition, read-out: concentrations as low as which partial inhibition occurred
  minimal effective concentration: 0.5 to 5 µM
[2]; HL-60
  Total 3H-mannose recovered: 844322 cpm
[2]; HL-60, percentage of radiolabelled glycopeptides eluted with 10 mM methylglucoside
  Bi-antennary: 17.7%
[2]; HL-60, percentage of radiolabelled glycopeptides eluted with 500 mM methylmannoside
  Oligo-mannose & hybrid: 54.2%
[2]; HL-60, percentage of radiolabelled glycopeptides non-bound
  Tetra- & Tri-antennary: 28.1%
[2]; HL-60 and BW5147
  glycopeptide profile by Con A-SEPHAROSE chromatography: unchanged glycopeptide profile
[3]; 0.5 mM and 5 mM
  inhibition of α-glucosidases I and II suggested by gp120 endo H sensitivity: not acting as an inhibitor of α-glucosidases I and II
[3]; 0.5 mM or 5 mM (FIG. 7)
  endo H sensitivity of gp120 N-linked glycans: partially sensitive to endo H and was indistinguishable from the untreated gp120 molecules
HL-60 cells
  cytotoxicity: non-cytotoxic
[4]; HL-60, 0.5 mM
  gangliosides, unknown lipid (N*), mono and dihexaside species following treatment: absent
[4]; HL-60, 500 μM
  depletion of glycolipid species: total depletion of glycolipid species
[5]
  cholera toxin binding: reduction of the binding of cholera toxin
[5]; h9 cells, 4320 min
  reduction in cholera toxin binding: approximately 70%
[6]
  IC50: 60.9 µM
WEHI-3B cell lysosomes
  glycolipid accumulation in lysosomes: prevented the glycolipid accumulation
[7]
  Total 3H-mannose recovered: 706873 cpm
[7]; percentage of radiolabelled glycopeptides eluted with 10 mM methylglucoside
  Bi-antennary: 7.2%
[7]; percentage of radiolabelled glycopeptides eluted with 500 mM methylmannoside
  Oligo-mannose & hybrid: 52.4%
[7]; percentage of radiolabelled glycopeptides non-bound
  Tetra- & Tri-antennary: 40.4%
